Reference: patent US20220275329A1, “COMPOSITIONS AND METHODS FOR MATURING STEM CELL-DERIVED BETA CELLS” (President and Fellows of Harvard College, priority 2019, published 2022)
Entries after “also recorded” stand apart in the source; their conditions may differ.

How the values were obtained:
mTORC1 [1] = assay: p-S6 FACS staining of beta cells in isolated human islets (mTORC1 activation); assay type: cell-based; settings: for effect on mTORC1 activity (p-S6) in mature beta cells: human islets, 30 minute incubation in RPMI
Description: Insulin-expressing beta cells appear around embryonic day 13.5 (E13.5) in mice and week 8 and 9 post-conception in humans (Pan and Wright, 2011; Slack, 1995), but glucose-stimulated insulin secretion (GSIS) has been observed only days after birth (Blum et al., 2012). Since a major change from embryonic to postnatal physiology is nutrient consumption, it was predicted that nutrients and nutrient sensing by mTORC1 could have a role in the transition from immature to mature insulin secretion by beta cells. To explore that, the nutrient sensitivity and dynamics of mTORC1 in isolated mature human and mouse islets was first examined.
(§1) Differentiated cell clusters or islets were dispersed into single-cell suspension by incubation in TrypLE Express (Invitrogen) at 37° C. until clusters dissociated to single cells upon mixing by pipetting gently up and down (typically 10-15 min). Cells were spun down for 3 min at 1000 rpm, washed once in PBS (1 mL) and transferred to a 1.7 ml microcentrifuge tube (Bioscience; 11510). Cells were resuspended in perm/fix solution and incubated for 10 min (BD 554714). Cells were then washed once in perm/wash for 15 min (BD 554714).
Cells were then resuspended in perm/wash with primary antibodies and incubated at 4° C. overnight. Primary antibodies, diluted 1:300 unless otherwise noted: Mouse anti-Nkx6.1, rat anti-insulin (pro-)IC-peptide, mouse anti-glucagon, rabbit anti-phospho-S6 Ribosomal Protein (Ser240/244). Cells were washed twice in blocking buffer and then incubated in perm/wash buffer with secondary antibodies for 2 hr (protected from light). Secondary antibodies conjugated to Alexa Fluor 405, 488 or 647 (Life Technologies) were used to visualize primary antibodies. Cells were then washed 3 times in perm/wash solution and finally resuspended in 500-700 μl, filtered through a 40 μm nylon mash into flow cytometry tubes (BD Falcon; 352235), and analyzed using the LSR-II flow cytometer (BD Biosciences) with at least 30,000 events recorded. Analysis of the results was performed using FlowJo software. […]

mTORC1 [2] = assay: p-S6 FACS staining of beta cells in isolated mouse islets (mTORC1 activation); assay type: cell-based
Experimental: as §1
Cells were then resuspended in perm/wash with primary antibodies and incubated at 4° C. overnight. Primary antibodies, diluted 1:300 unless otherwise noted: Mouse anti-Nkx6.1, rat anti-insulin (pro-)IC-peptide, mouse anti-glucagon, rabbit anti-phospho-S6 Ribosomal Protein (Ser240/244). […] Cells were then washed 3 times in perm/wash solution and finally resuspended in 500-700 μl, filtered through a 40 μm nylon mash into flow cytometry tubes (BD Falcon; 352235), and analyzed using the LSR-II flow cytometer (BD Biosciences) with at least 30,000 events recorded. […]
For flow cytometry, mouse islets were dissociated into a single-cell suspension with trypsin/EDTA treatment for 5 minutes at 37° C., followed by treatment with a cell fixation and permeabilization solution (BD Pharmingen). Stained cells were analyzed on a MACSQuant Analyzer (DAKO). […]

SC-beta cells = assay: Glucose stimulated insulin secretion (GSIS) assay of SC-beta cells; assay type: cell-based, human
Experimental: (§2) The hPSC line HUES8 (NIH human embryonic stem cell registry #0021) was used for all experiments. Undifferentiated HUES8 cells were maintained in supplemented mTeSR1 medium (StemCell Technologies) in 500 ml spinner flasks (Coming) set at a 70 rpm rotation rate in a 37° C. 5% CO2 incubator. Directed differentiation into SC-β cells was conducted as described previously with minor modifications. Briefly, 150 million cells were seeded in 300 ml mTeSR1 +10 μM ROCK Inhibitor Y27632, fed with mTeSR1 48 h later, and 72 h later stepwise differentiation stages were induced by the following treatments: DE stage: 24 h in S1 medium +100 ng/ml ActivinA +[…] CHIR99021, followed by 48 h in the same medium without CHIR99021. PGT stage: 72 h in S2 medium +50 ng/ml KGF. PP1 stage: 24 h in S3 medium +50 ng/ml KGF +0.25 μM Sant1 +2 μM Retinoic acid (RA) +500 nM PDBU +10 μM Y27632 +200 nM LDN193189, followed by 24 h in the same medium without LDN193189. PP2 stage: 6 days in S3 medium +50 ng/ml KGF +0.25 uM Sant1 +0.1 μM Retinoic acid (RA) +10 μM Y27632 +5 ng/ml ActivinA. […]
Islets were isolated from whole pancreata using Collagenase P (Roche) injected to the pancreatic duct followed by Histopaque gradient (Sigma). […] Insulin levels were measured by ELISA (Alpco). […] Normalization was done to β-cell number in each sample (pooled from 4 or more mice) scored by FACS following staining for insulin.

mTORC1 [3] = assay: p-S6 staining of SC-beta cells (mTORC1 activity); assay type: cell-based, human
Experimental: as §2, with “LDN193189.” for “LDN193189. PP2 stage: 6 days in S3 medium +50 ng/ml KGF +0.25 uM Sant1 +0.1 μM Retinoic acid (RA) +10 μM Y27632 +5 ng/ml ActivinA.”
Cells were then resuspended in perm/wash with primary antibodies and incubated at 4° C. overnight. […] Cells were then washed 3 times in perm/wash solution and finally resuspended in 500-700 μl, filtered through a 40 μm nylon mash into flow cytometry tubes (BD Falcon; 352235), and analyzed using the LSR-II flow cytometer (BD Biosciences) with at least 30,000 events recorded. […]

mTORC1 [4] = assay: p-S6 immunostaining of pancreatic islets of fasted mice injected with nutrients; assay type: in vivo, mouse; settings: overnight fasted mice, injection
Experimental: To assess this, mTORC1 activation was analyzed in the islets of fasted mice upon injection with glucose and/or leucine. […] Alpha cells activate the pathway in the presence of amino acids (likely supplied from autophagy) and the absence of glucose (e.g., during fasting), whereas beta cells activate mTORC1 merely following glucose consumption and insulin secretion during feeding (FIG. 1H).
To test the nutrient sensitivity of mTORC1 in beta cells in vivo, glucose was injected into neonates and their pancreata was dissected.
Tissue processing for tissue section staining was performed as previously described {Nir, 2007 #3232}, using the following antibodies: insulin (DakoCytomation), Ki67 (NeoMarkers RM9106S0), Pdx1 (gift from Christopher Wright, Vanderbilt University), Nkx6.1 (β-cell Biology Consortium), Chga (Novus NB120-15160) human p16 (Abcam ab108349 and BD Pharmingen 551153), p21 (Santa Cruz Biotechnology sc-397), Lamp2a (Abcam ab18528), pS6 (Cell Signaling 5364), E-cadherin (BD Pharmingen 610182), Atp5a (Abcam ab14748), Cox17 (Novus NBP1-19696) and Ndufb (Sigma-Aldrich HPA005640). Secondary antibodies were from Jackson ImmunoResearch Laboratories. […] To calculate cell size on tissue sections, the circumference of E-Cadherin-stained cells was determined using Image J Software. >100 cells from 6 mice were scored for each group. […]

mTORC1 [5] = assay: p-S6 immunostaining of kidney capsule transplants of SC-beta cells in mice injected with nutrients; assay type: in vivo; settings: two months after transplantation, fasted recipient mouse, injection
Experimental: Having insight into the nutrient sensitivity of mTORC1 in immature and mature beta cells, the next question was whether changing the environment of the SC-beta cells would change mTORC1 sensitivity to nutrients and its dynamics (FIG. 3A). SC-beta cells were collected from the final stage of the differentiation protocol and transplanted into mice for a period of two months, until reaching a stable functional state. […] All animal experiments were performed in accordance with Harvard University […] Animal Care and Use Committee regulations. Cell transplantations into immunodeficient SCID-Beige mice (Jackson Laboratory) were conducted as described previously with minor modifications. SC-beta cell clusters were resuspended in RPMI-1640 medium (Life Technologies; 11875-093), aliquoted into PCR tubes and kept on ice until loading into a catheter for cell delivery under the mouse kidney capsule. Mice were anesthetized with 0.5 ml/25 g 1.25% Avertin/body weight, and the left […] kidney site was shaved and disinfected with betadine and alcohol. A 1 cm incision was made to expose the kidney, followed by insertion of the catheter needle and injection of the cell clusters. […] Wound clips were removed 14 days post-surgery and mice were monitored twice a week. […]

CC1=NS(=O)(=O)c2cc(Cl)ccc2N1 [diazoxide]
effect on mTORC1 activity (p-S6) in mature beta cells (mTORC1 [1]): inhibits mTORC1 activation; also recorded: dramatically reduces mTORC1 activity in beta cells
effect on mTORC1 activation (p-S6) in immature beta cells from mice of indicated age (mTORC1 [2]; RPMI with glucose and amino acids, 30 minute incubation): inhibits mTORC1 activation only at P5; also recorded: does not affect mTORC1 activation

CCC(=O)N1CCN(c2ccc(-n3c(=O)ccc4cnc5ccc(-c6cnc7ccccc7c6)cc5c43)cc2C(F)(F)F)CC1 [Torin1]
effect on mTORC1 activity (p-S6) in mature beta cells (mTORC1 [1]): inhibited
GSIS of SC-beta cells grown in indicated conditions (SC-beta cells; low (2.8 mM) and high (16.7 mM) glucose for 1 h): increases their GSIS
insulin secretion in dynamic GSIS assay (SC-beta cells; nonresponsive SC-beta cells treated for 48 hours, low 2.8 mM, high 16.7 mM glucose): induced insulin secretion in response to glucose
effect on enhanced mTORC1 signaling (phosphorylation of p-S6) in nonresponsive SC-beta cells (mTORC1 [3]; glucose-nonresponsive SC-beta cells): repressed
effect on mTORC1 activity (p-S6) of SC-beta cells cultured in a high nutrient environment (mTORC1 [3]; rich RPMI media): repressed

insulin
effect on mTORC1 activity (p-S6) in mature beta cells (mTORC1 [1]): not mimicked; also recorded: neither stimulation with insulin nor stimulation with insulin and amino acids was able to activate mTORC1 in beta cells
effect on mTORC1 activation (p-S6) in mouse beta cells (mTORC1 [2]; mouse islets, 30 minutes incubation in RPMI with indicated nutrients): do not affect mTORC1 activation in beta cells

CC(C)C[C@H](N)C(=O)O [leucine]
mTORC1 activation (p-S6) in beta cells of adult mice (mTORC1 [4]): not sufficient to activate the pathway
effect on mTORC1 activity (p-S6) in mature beta cells (mTORC1 [1]): amplifies the response to glucose in beta cells; also recorded: sufficient to fully activate the beta cell mTORC1 pathway in the presence of glucose
mTORC1 pathway activation (p-S6) in transplanted SC-beta cells (mTORC1 [5]): remains inactive

Exendin-4
effect on mTORC1 activity (p-S6) in mature beta cells (mTORC1 [1]): increased
effect on mTORC1 activity (p-S6) in mature beta cells (mTORC1 [1]; listed as exendin4): strongly activate mTORC1 in beta cells
effect on mTORC1 activity suppressed by diazoxide in beta cells (mTORC1 [1]; in the presence of diazoxide, glucose and amino acids): rescued
